Measurements from patent EP0046707B1, “Derivatives of 4-aminobutyric acid and the medicines especially active on the central nervous system containing them” (priority 1980, dated 1982).
Read-outs that look alike come from different tables or passages of the source.

Tests used:
[1] = test system: souris; experiment: Actography (locomotor activity, two perpendicular light beams); assay type: in vivo; settings: mouse, 500 mg/kg oral
Protocol: La mesure de l'actographie est effectuée chez la souris 45 min. après l'administration du produit. On opère sur des lots de 12 animaux, chacun d'eux étant isolé pendant 10 min. avant la mesure. Le comptage des scores est effectué par coupure de deux faisceaux lumineux perpendiculaires.
Dans le tableau IV ci-après sont rassemblés les résultats obtenus avec divers produits de l'invention administrés à la dose de 500 mg/kg par voie orale. Les résultats sont exprimés en pourcentage de variation des scores obtenus par rapport à des animaux témoins non traités.
On peut constater que les produits se répartissent en deux groupes : • ceux provoquant de l'hypomotilité tels que 40217, 40039, 40271, 40272, 40319; dans le cas où les animaux traités présentent une perte du réflexe de retournement, ce qui traduit l'effet de narcose propre du produit, on a noté PRR; • ceux provoquant de l'hypermotilité, tels que 40142, 40398, 40397, 40404, 40253, 40355, 40209; pour préciser les résultats obtenus, l'étude pour deux produits a été reprise en effet-dose suivant le même protocole. • Les résultats obtenus figurent dans le tableau V ci-après.

[2] = test system: souris; experiment: Anticonvulsant effect against electroshock seizures; assay type: in vivo; settings: 1 h; mouse, electroshock 12.5 V for 0.5 s, 60 min after oral dosing; read-out: Dose efficace médiane de protection des crises toniques (DE 50) Electrochoc
Protocol: (§1) L'effet anticonvulsivant a été déterminé vis-à-vis des crises convulsives provoquées par l'électrochoc ou par la bicuculline.
L'électrochoc (12,5 V pendant 0,5 s) est effectué chez la souris 60 min après l'administration du produit par voie orale.
(§2) En opérant sur divers lots d'animaux avec des doses différentes du produit à étudier, on peut déterminer la dose efficace médiane (DE 50).
(§3) Les résultats sont rassemblés dans le tableau VIII ci-après et montrent les propriétés anticonvulsivan- tes nettes des produits étudiés.

[3] = test system: GABA (acide amino-4 butyrique); experiment: Effect on whole-brain GABA level; assay type: in vivo, souris
Protocol: Le 40039 a été administré 30 min avant le sacrifice chez la souris. Le taux de GABA a été évalué sur le cerveau entier (lots de 6 animaux) (voir tableau IX ci-après).

[4] = test system: souris; experiment: Anticonvulsant effect against bicuculline-induced tonic seizures; assay type: in vivo; settings: 1 h; mouse, bicuculline 1 mg/kg i.v. 60 min after oral dosing; read-out: Dose efficace médiane de protection des crises toniques (DE 50) Bicuculline
Protocol: as §1
La bicuculline est administrée à la souris par voie intraveineuse à raison de 1 mg/kg, 60 min après le produit à étudier donné per os. On note l'effet protecteur obtenu vis-à-vis des crises toniques.
as §2, §3

[5] = Acute toxicity (mortality over 24 h); settings: in vivo, po, mouse, observed 24 h
Protocol: Les produits à étudier sont administrés par voie orale aux doses de 500 et 1 000 mg/kg à des lots de souris. On observe les souris pendant 24 h et note la mortalité.
Les résultats exprimés en pourcentage de mortalité figurent dans le tableau XI ci-après.

[6] = test system: souris; experiment: Potentiation of pentobarbital narcosis (loss of righting reflex); assay type: in vivo; settings: po; mouse, p. os 1 h before pentobarbital 20 mg/kg i.p.; unit not given for DE 50; read-out: dose (p. os) provoquant 50 % d'induction de narcose (DE 50)
Protocol: Les produits à étudier ont été administrés per os chez la souris à la dose de 500 mg/kg, 1 h avant le pentobarbital injecté par voie intrapéritonéale à raison de 20 mg/kg.
On détermine le pourcentage des animaux ayant perdu le réflexe de retournement. Les résultats sont exprimés en pourcentage ou, dans quelques cas, en dose efficace 50 (DE 50) ou dose provoquant la narcose chez 50 % des animaux traités.
Les résultats figurent dans le tableau VI ci-après.

[7] = test system: rats; experiment: Electroencephalographic study (sleep/wake analysis per 24 h); assay type: in vivo; settings: rat; for EV / SL / SP / ST: per 24 h
Protocol: Pour mieux comprendre l'activité hypnotique des produits selon l'invention, une étude électroencéphalographique a été effectuée sur l'un deux, à savoir CM 40039.
[…] Après une période d'habituation de 10 jours (période éclairée de 8 h à 20 h et période obscure de 20 h à 8 h), les animaux sont enregistrés pendant 5 jours avec le solvant (gomme arabique à 10 %), puis enregistrés pendant 4 jours pendant lesquels ils reçoivent le produit à 9 h chaque matin. Après cette administration chronique, les animaux sont enregistrés les 5 jours suivants (période de contrôle).
Les animaux sont enregistrés 24 h sur 24. L'étude statistique porte sur des tranches de 24 h. On fait une analyse globale sur les trois rats en cumulant les 15 journées témoins, les 12 journées de traitement, les 15 journées de contrôle. Dans chaque tranche horaire de 24 h, on évalue le temps d'éveil (EV), de sommeil lent (SL), de sommeil paradoxal (SP), de sommeil total (ST), ainsi que le rapport (en %) sommeil paradoxal/sommeil total (SP/ST) (voir tableau VII ci-après).

[8] = test system: acide homovanillique (HVA); experiment: Effect on central dopaminergic activity (homovanillic acid accumulation in whole brain); assay type: in vivo, souris; settings: mouse whole brain, 500 mg/kg p.os
Protocol: L'effet des produits sur l'activité dopaminergique centrale a été étudié par la mesure de l'accumulation de l'acide homovanillique sur une période de 24 h après l'administration des produits chez la souris.
Le taux d'acide homovanillique (HVA) est évalué dans le cerveau entier, les animaux reçoivent une injection de probenecid (200 mg/kg i.p.) 1 h 30 min avant le sacrifice (lot de 10 animaux).

[9] = post-treatment 'Contrôle' period

SMILES: CCCCN(CCCC)C(=O)CCCNC(=O)CCC [40 039, Butyl-10 dioxo-4,9 diaza-5,10 tétradécane]
- Mesure de l'actographie (p. cent scores/témoins) ([1]; 45 min after dosing, change of scores vs untreated controls, PRR = loss of righting reflex): PRR
- hypomotilité / hypermotilité ([1]; grouping in words): hypomotilité
- ED50 [2]: 250 mg/kg
- Taux de GABA en µg/g cerveau ([3]; mouse whole brain, 500 mg/kg p. os, 30 min before sacrifice): 321 ± 12 µg/g cerveau
- Taux de GABA p.cent/témoins ([3]; mouse whole brain, 500 mg/kg p. os, change vs controls): 14,6 p.cent
- taux de GABA dans le cerveau total ([3]; mouse, result in words): rapide augmentation
- ED50 [4]: 300 mg/kg
- mortality at 24 h ([5]; 500 mg/kg p. os, read-out: p. cent de mortalité à 500 mg/kg p. os): 0%
- mortality at 24 h ([5]; 1000 mg/kg p. os, read-out: p. cent de mortalité à 1000 mg/kg p. os): 100%
- ED50 [6]: 200 mg/kg
- EV ([7]; 'Contrôle' = 5 days after end of chronic treatment): 40,3 ± 3,6
- SP/ST [7, 9]: 13,5 ± 1,8%
- SL [7, 9]: 51 ± 3
- SP [7, 9]: 8,6 ± 1,7
- ST [7, 9]: 59,6 ± 3,9
- EV ([7]; treatment period (12 days pooled, 3 rats), 325 mg/kg as in table head, wake time): 40,6 ± 3
- SP ([7]; treatment period, paradoxical sleep): 8,1 ± 1,4
- SL ([7]; treatment period, slow-wave sleep): 51,5 ± 2
- ST ([7]; treatment period, total sleep): 59,5 ± 2,6
- SP/ST ([7]; treatment period, ratio paradoxical/total sleep): 13,2 ± 1,9%
- Taux de HVA en ([8]; 2 h): 798 ± 34 ng/g
- Taux de HVA en ([8]; 4 h): 894 ± 37 ng/g
- Taux de HVA en ([8]; 6 h): 659 ± 29 ng/g
- Taux de HVA (variation vs 0) ([8]; 6 h, change vs time 0): 0%
- Taux de HVA en ([8]; 24 h): 441 ± 19 ng/g
- Taux de HVA en ([8]; time 0 (baseline)): 658 ± 40 ng/g
